Data on eight molecules can be found in patent US8492397B2, “Aminopyridine derivatives having Aurora A selective inhibitory action” (Vertex Pharmaceuticals Incorporated, priority 2009, dated 2013).

Where only a bound is given, the exact number is not on record here.

In one test the target is T1, Aurora A (Homo sapiens, UniProt O14965).
T1 construct: histidine tag (N); made in house; host or cells: Escherichia coli BL21-CodonPlus(DE3)-RIL
T1 sequence (O14965 1-403): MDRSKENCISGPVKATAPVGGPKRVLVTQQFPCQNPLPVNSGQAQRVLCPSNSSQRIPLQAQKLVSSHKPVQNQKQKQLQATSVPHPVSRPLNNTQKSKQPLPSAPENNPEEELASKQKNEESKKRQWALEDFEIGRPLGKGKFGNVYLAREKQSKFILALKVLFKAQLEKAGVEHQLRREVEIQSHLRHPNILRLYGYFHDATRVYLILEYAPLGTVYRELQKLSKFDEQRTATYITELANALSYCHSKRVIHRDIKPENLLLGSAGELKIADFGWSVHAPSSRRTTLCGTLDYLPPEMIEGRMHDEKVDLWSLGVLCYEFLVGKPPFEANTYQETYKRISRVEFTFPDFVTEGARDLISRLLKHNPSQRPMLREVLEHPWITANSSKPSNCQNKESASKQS
Briefly: Aurora A inhibitory action (33P-ATP Kemptide phosphorylation, filter assay). It is filed as biochemical. The note with it: His-tagged Aurora A, 100 μM Kemptide, 20 μM ATP, 30° C., 20 minutes. An excerpt:
cDNA of Aurora A having histidine tag fused at the amino terminal was integrated into an expression vector, which was then highly expressed in Escherichia coli BL21-CodonPlus(DE3)-RIL cells. The Escherichia coli cells were recovered and solubilized, and then the histidine-tagged Aurora A protein was adsorbed onto a nickel chelate column and eluted from the column with imidazole. The active fraction was desalted with a desalting column to give a pure enzyme.
For measurement of the activity of Aurora A, the substrate used was Kemptide (Leu-Arg-Arg-Ala-Ser-Leu-Gly) (SEQ.ID.NO.: 1), a synthetic peptide purchased from Sigma-Aldrich, Inc. [Certificate of analysis (Upstate, Inc.)].
Reaction was conducted by a partial modification of a method by Upstate, Inc. [Kinase Profiler™ Assay Protocols]. The amount of the reaction liquid was 21.1 μL, and the composition of the reaction buffer (R2 buffer) was 50 mM Tris-hydrochloride buffer (pH 7.4)/15 mM magnesium acetate/0.2 μM ethylenediamine-N,N,N′,N′-tetraacetate (EDTA). To this, purified Aurora A, 100 μM of a substrate peptide, 20 μM of unlabeled adenosine triphosphate (ATP) and 0.5 μCi of [γ-^33P] labeled ATP (2,500 Ci/mmole or more) were added, and the mixture was reacted at 30° C. for 20 minutes. Then, 10 μL of 350 mM phosphate buffer was added to the reaction system to stop the reaction. The substrate peptide was adsorbed on a P81 paper filter 96-well plate and then washed with 130 mM phosphate buffer for several times. The radiation activity of the peptide was measured with a liquid scintillation counter. The [γ-^33P] labeled ATP was purchased from Amersham Biosciences Co., Ltd.
The compound to be tested was added to the reaction system such that a dilution series of the compound in dimethylsulfoxide was first prepared, and 1.1 μL of this solution was added. A control was provided by adding 1.1 μL of DMSO to the reaction system.

A further test concerns the target T2, Aurora B (Homo sapiens, UniProt Q96GD4).
T2 construct: histidine tag (N); made in house; host or cells: Escherichia coli BL21-CodonPlus(DE3)-RIL
Briefly: Aurora B inhibitory action (33P-ATP Kemptide phosphorylation, filter assay). It is filed as biochemical. The following applies: His-tagged Aurora B, 100 μM Kemptide, 100 μM ATP, 30° C., 20 minutes. An excerpt: cDNA of Aurora B having histidine tag fused at the amino terminal was integrated into an expression vector, which was then highly expressed in Escherichia coli BL21-CodonPlus(DE3)-RIL cells. The Escherichia coli cells were recovered and solubilized, and then the histidine-tagged […] protein was adsorbed onto a nickel chelate column and eluted from the column with imidazole, The active fraction was desalted with a desalting column to give a pure enzyme.
For measurement of the activity of Aurora B, the substrate used was Kemptide (Leu-Arg-Arg-Ala-Ser-Leu-Gly) (SEQ.ID.NO.: 1), a synthetic peptide purchased from Sigma-Aldrich, Inc, [Certificate of analysis (Upstate, Inc.)].
Reaction was conducted by a partial modification of the method of activity measurement for Aurora A. The amount of the reaction liquid was 21.1 μL, and the composition of the reaction buffer (R2 buffer) was 50 mM Tris-hydrochloride buffer (pH 7.4)/15 mM magnesium acetate/0.2 mM ethylenediamine-N,N,N′,N′-tetraacetate (EDTA). To this, purified Aurora B, 100 μM of a substrate peptide, 100 μM of unlabeled adenosine triphosphate (ATP) and 1 μCi of [γ-^33P] labeled ATP (2,500 Ci/mmole or more) were added, and the mixture was reacted at 30° C. for 20 minutes. Then, 10 μL of 350 mM phosphate buffer was added to the reaction system to stop the reaction. The substrate peptide was adsorbed on a P81 paper filter 96-well plate and then washed with 130 mM phosphate buffer for several times. The radiation activity of the peptide was measured with a liquid scintillation counter. The [γ-^33P] labeled ATP was purchased from Amersham Biosciences Co., Ltd.

T2 sequence (Q96GD4 whole entry): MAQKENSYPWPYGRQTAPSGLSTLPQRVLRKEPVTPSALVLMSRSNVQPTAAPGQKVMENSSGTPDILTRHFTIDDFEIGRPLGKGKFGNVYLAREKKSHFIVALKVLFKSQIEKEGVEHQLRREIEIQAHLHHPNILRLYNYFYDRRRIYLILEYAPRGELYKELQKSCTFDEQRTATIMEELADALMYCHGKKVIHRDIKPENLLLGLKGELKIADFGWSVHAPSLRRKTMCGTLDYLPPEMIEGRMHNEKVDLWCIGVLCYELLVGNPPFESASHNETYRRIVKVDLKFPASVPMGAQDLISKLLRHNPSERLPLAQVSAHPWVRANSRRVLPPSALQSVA

Broadly, the IC50 is the concentration needed to halve the response being measured. As for `Cc1cc(Nc2cc[nH]n2)nc(N2CC(NC(=O)O[C@@H](C)C(F)(F)F)[C@H](C)C2)n1` (stereo in doubt) [Example 7, (2S)-1,1,1-trifluoropropan-2-yl{(3R,4R)-4-methyl-1-[4-methyl-6-(1H-pyrazol-3-ylamino)pyrimidin-2-yl]pyrrolidin-3-yl}carbamate], the values for the IC50 at Aurora A and against Aurora B were 6.2 nM and 310 nM, respectively.

Turning to `Cc1cc(Nc2cc[nH]n2)nc(N2CC(NC(=O)OC(C)(C)C)[C@H](C)C2)n1` (stereo in doubt) [Example 9, tert-butyl {(3R,4R)-4-methyl-1-[4-methyl-6-(1H-pyrazol-3-ylamino)pyrimidin-2-yl]pyrrolidin-3-yl}carbamate], the figures for the IC50 at Aurora A and on Aurora B were 75 nM and 5800 nM, respectively.

Take `Cc1cc(Nc2cc[nH]n2)nc(N2CC[C@H](NC(=O)O[C@@H](C)C(F)(F)F)C2)n1` [Example 1, (2S)-1,1,1-trifluoropropan-2-yl{(3S)-1-[4-methyl-6-(1H-pyrazol-3-ylamino)pyrimidin-2-yl]pyrrolidin-3-yl}carbamate]: the IC50 against Aurora A was determined as 3.6 nM; against Aurora B, 210 nM.

As to `Cc1cc(Nc2cc[nH]n2)nc(N2C[C@@H](O)[C@H](NC(=O)O[C@@H](C)C(F)(F)F)C2)n1` [Example 2, (2S)-1,1,1-trifluoropropan-2-yl{(3R,4R)-4-hydroxy-1-[4-methyl-6-(1H-pyrazol-3-ylamino)pyrimidin-2-yl]pyrrolidin-3-yl}carbamate], the results for the IC50 against Aurora A and on Aurora B were 33 nM and 2200 nM, respectively.

On to `Cc1cc(Nc2cc(C)[nH]n2)nc(N2CC[C@H](NC(=O)O[C@@H](C)C(F)(F)F)C2)n1` [Example 3, (2S)-1,1,1-trifluoropropan-2-yl {(3S)-1-[4-methyl-6-(5-methyl-1H-pyrazol-3-ylamino)pyrimidin-2-yl]pyrrolidin-3-yl}carbamate], for which the 50% inhibitory concentration (IC50) against Aurora A worked out at 6.4 nM; against Aurora B, 190 nM.

On to `Cc1cc(Nc2cc[nH]n2)nc(N2CC[C@H](NC(=O)OC(C)(C)C(F)(F)F)C2)n1` [Example 4, 1,1,1-trifluoro-2-methylpropan-2-yl{(3S)-1-[4-methyl-6-(1H-pyrazol-3-ylamino)pyrimidin-2-yl]pyrrolidin-3-yl}carbamate], for which the IC50 is 22 nM at Aurora A and 3800 nM against Aurora B.

Take `Cc1cc(Nc2cc(C)[nH]n2)nc(N2CC[C@H](NC(=O)OC(C)(C)C)C2)n1` [Example 6, tert-butyl {(3S)-1-[4-methyl-6-(5-methyl-1H-pyrazol-3-ylamino)pyrimidin-2-yl]pyrrolidin-3-yl}carbamate]: the IC50 was determined as 28 nM on Aurora A and 1800 nM against Aurora B.

Regarding `CO[C@@H]1CN(c2nc(C)cc(Nc3cc[nH]n3)n2)C[C@H]1NC(=O)O[C@@H](C)C(F)(F)F` [Example 8, (2S)-1,1,1-trifluoropropan-2-yl{(3R,4R)-4-methoxyl-1-[4-methyl-6-(1H-pyrazol-3-ylamino)pyrimidin-2-yl]pyrrolidin-3-yl}carbamate], the results for the IC50 against Aurora A and against Aurora B were 37 nM and over 10000 nM, respectively.
